Measured values taken from patent US6784283B2, “Peptide antibiotics” (The University of British Columbia, priority 2000, dated 2004).
Starred links: 1 amine or outer side, 2 acyl side, 3 side chain; linkers in the order of their positions; H or OH if unused. Non-standard residues stand in square brackets, D forms with d. Residues, ends and D or L forms follow the SMILES beside them. *: point of attachment. Pentanoyl(2S-OH,3S-Me) = CC[C@H](C)[C@H](O)C(=O)*; X1 = C/C=C(/N[*:1])C(=O)[*:2]; dOrn = NCCC[C@@H](N)C(=O)O; Valol = CC(C)[C@@H](CO)N*

Experiments:
[1] = system: methicillin-resistant Staphylococcus aureus; test: agar dilution antimicrobial assay (MIC); type: cell-based
Method: (§1) A solution of Bogorol A was prepared by dissolving 3 mg of e compound in 300 μL of dimethylsulfoxide (DMSO). Serial two-fold dilutions were prepared in DMSO, and 50 μL of each dilution was mixed with 5 mL of melted Mueller-Hinton agar to achieve a final Bogorol A concentration range of 200 to 0.48 μg/ml. After the agar solidified, standardized suspensions of the target organisms were inoculated onto the surface of the agar using a multipoint inoculator. The standardized suspensions were prepared in tryptic soy broth adjusted to a 1.0 McFarland turbidity standard. The plates were incubated over night at 37° C. Activity of Bogorol A was indicated by a lack of growth of any target organism at its point of inoculation.

[2] = system: Stenotrophomonas maltophilia; conditions: agar dilution
Method: as §1

[3] = system: Berkholderia cepacia; conditions: other target organisms tested (Berkholderia cepacia); agar dilution
Method: as §1

[4] = system: vancomycin-resistant Enterococcus faecalis; conditions: agar dilution
Method: as §1

[5] = system: Escherichia coli; conditions: agar dilution
Method: as §1

[6] = system: Drug Resistant Pseudomonas aeruginosa; conditions: other target organisms tested (Drug Resistant Pseudomonas aeruginosa); agar dilution
Method: as §1

[7] = system: Candida aibicans; conditions: other target organisms tested (Candida aibicans); agar dilution
Method: as §1

C/C=C(/NC(=O)[C@@H](O)[C@@H](C)CC)C(=O)N[C@@H](CC(C)C)C(=O)N[C@H](CCCN)C(=O)N[C@H](C(=O)N[C@H](C(=O)N[C@H](C(=O)N[C@H](CCCCN)C(=O)N[C@H](C(=O)N[C@@H](CC(C)C)C(=O)N[C@@H](CCCCN)C(=O)N[C@H](Cc1ccc(O)cc1)C(=O)N[C@H](CC(C)C)C(=O)N[C@H](CO)C(C)C)C(C)C)C(C)C)C(C)C)[C@@H](C)CC [Bogorol A] ({Pentanoyl(2S-OH,3S-Me)}-[X1]L[dOrn]IVV[dK]VLK[dY][dL]-Valol)
antimicrobial activity (in words) [1]: active | antimicrobial activity (in words) [2]: moderately active | antimicrobial activity (in words) [3]: essentially inactive | antimicrobial activity (in words) [4]: active | antimicrobial activity (in words) [5]: moderately active | antimicrobial activity (in words) [6]: essentially inactive | antimicrobial activity (in words) [7]: essentially inactive
